Blank lines part the entries; values can stand above or below the molecule they belong to.
What was measured:
hOCT3 [1] = target: T1, hOCT3 (Homo sapiens, UniProt O75751); assay: hOCT3 direct uptake assay (LC-MS-MS, CHO-TREx-hOCT3 cells); details: specific uptake (induced minus non-induced)
hOCT3 [2] = target: T1, hOCT3; assay: hOCT3 competition uptake assay (3H-MPP uptake into CHO-TREx-hOCT3 cells)
PgP = target: T2, PgP (Homo sapiens, UniProt P08183); assay: Transwell monolayer efflux assay, MDCK cells with TREx-PgP; assay type: cell-based; details: 2.5 nM 3H-vinblastine, in the presence of 250 μM verapamil
T2 construct: expressed in transfected cells; host or cells: MDCK cells transfected with tetracycline-inducible TREx-PgP
Experimental: Transwell monolayer efflux assays can be performed by transfecting MDCK cells with the tetracycline-inducible TREx-PgP expression vector. The cells optionally can be transfected with a nucleic acid encoding the transporter of interest. The transfected cells are seeded on polycarbonate filter membranes in transwell dishes and grown for 3-5 days, yielding a polarized monolayer with tight junctions between cells.

[3] = substrate: NCCc1c[nH]cn1; assay: cells, lysate or membranes; details: other: CHO-TREx-hOCT3 cells, specific uptake (induced minus non-induced)

T2 sequence (P08183 whole entry): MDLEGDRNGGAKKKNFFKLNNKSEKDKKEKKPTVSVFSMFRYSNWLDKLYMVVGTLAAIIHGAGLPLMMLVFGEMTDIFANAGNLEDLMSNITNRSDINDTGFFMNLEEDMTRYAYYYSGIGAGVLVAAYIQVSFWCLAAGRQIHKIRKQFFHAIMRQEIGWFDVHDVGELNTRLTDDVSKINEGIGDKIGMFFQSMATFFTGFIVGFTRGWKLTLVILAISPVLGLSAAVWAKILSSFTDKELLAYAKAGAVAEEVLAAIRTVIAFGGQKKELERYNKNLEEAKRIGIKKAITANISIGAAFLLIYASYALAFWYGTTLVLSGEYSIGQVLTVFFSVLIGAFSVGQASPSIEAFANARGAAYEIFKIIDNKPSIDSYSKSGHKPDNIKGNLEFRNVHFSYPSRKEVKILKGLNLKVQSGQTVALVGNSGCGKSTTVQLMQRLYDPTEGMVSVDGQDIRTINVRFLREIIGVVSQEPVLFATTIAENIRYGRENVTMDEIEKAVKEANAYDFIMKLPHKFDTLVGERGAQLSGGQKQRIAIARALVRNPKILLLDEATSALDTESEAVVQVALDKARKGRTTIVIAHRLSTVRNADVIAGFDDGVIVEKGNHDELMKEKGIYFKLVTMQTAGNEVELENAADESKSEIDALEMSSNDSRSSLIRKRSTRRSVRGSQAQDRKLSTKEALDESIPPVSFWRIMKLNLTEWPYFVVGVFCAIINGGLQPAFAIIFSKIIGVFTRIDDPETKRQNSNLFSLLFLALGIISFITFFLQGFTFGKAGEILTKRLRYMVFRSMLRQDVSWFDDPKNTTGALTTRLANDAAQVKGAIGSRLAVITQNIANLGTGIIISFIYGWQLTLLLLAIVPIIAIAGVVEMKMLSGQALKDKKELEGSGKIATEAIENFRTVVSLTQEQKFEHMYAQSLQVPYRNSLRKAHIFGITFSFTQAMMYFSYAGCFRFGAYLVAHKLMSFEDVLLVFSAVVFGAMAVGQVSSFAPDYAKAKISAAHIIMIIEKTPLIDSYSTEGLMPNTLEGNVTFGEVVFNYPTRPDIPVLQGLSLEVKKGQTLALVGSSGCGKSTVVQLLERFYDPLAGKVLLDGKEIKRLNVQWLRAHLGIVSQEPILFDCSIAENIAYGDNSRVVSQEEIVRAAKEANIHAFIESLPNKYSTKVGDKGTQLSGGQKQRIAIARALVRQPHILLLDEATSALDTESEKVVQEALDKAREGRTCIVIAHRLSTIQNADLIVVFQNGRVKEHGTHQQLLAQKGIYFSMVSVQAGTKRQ

- Direct Uptake Vmax (hOCT3 [1]): 4.6 pmol/min/well
- IC50 (hOCT3 [2]): 150 µM
- uptake of labeled MPP with increasing concentration of unlabeled competitor (hOCT3 [2]; cells induced to express OCT3, FIG. 2): decreased
Molecule: NCCc1c[nH]cn1 [Histamine, histamine]

- apical to basolateral transport (PgP): strongly increased
- basolateral to apical transport (PgP): strongly decreased
Molecule: CC[C@]1(O)C[C@@H]2CN(CCc3c([nH]c4ccccc34)[C@@](C(=O)OC)(c3cc4c(cc3OC)N(C)[C@H]3[C@@](O)(C(=O)OC)[C@H](OC(C)=O)[C@]5(CC)C=CCN6CC[C@]43[C@@H]65)C2)C1 [^3H-vinblastine, vinblastine]

B1: hOCT3 (Homo sapiens) (protein)
chain: MPSFDEALQRVGEFGRFQRRVFLLLCLTGVTFAFLFVGVVFLGTQPDHYWCRGPSAAALAERCGWSPEEEWNRTAPASRGPEPPERRGRCQRYLLEAANDSASATSALSCADPLAAFPNRSAPLVPCRGGWRYAQAHSTIVSEFDLVCVNAWMLDLTQAILNLGFLTGAFTLGYAADRYGRIVIYLLSCLGVGVTGVVVAFAPNFPVFVIFRFLQGVFGKGTWMTCYVIVTEIVGSKQRRIVGIVIQMFFTLGIIILPGIAYFIPNWQGIQLAITLPSFLFLLYYWVVPESPRWLITRKKGDKALQILRRIAKCNGKYLSSNYSEITVTDEEVSNPSFLDLVRTPQMRKCTLILMFAWFTSAVVYQGLVMRLGIIGGNLYIDFFISGVVELPGALLILLTIERLGRRLPFAASNIVAGVACLVTAFLPEGIAWLRTTVATLGRLGITMAFEIVYLVNSELYPTTLRNFGVSLCSGLCDFGGIIAPFLLFRLAAVWLELPLIIFGILASICGGLVMLLPETKGIALPETVDDVEKLGSPHSCKCGRNKKTPVSRSHL
- Km [3]: 110 µM
